Where two headings read alike, the source gives them in different places.
How the values were obtained:
β-receptors of the heart = target: T1, β-receptors of the heart (Felis catus, UniProt Q9TST6); test: Intrinsic activity and β-blockade of heart rate response to isoprenaline in the reserpinized cat; type: in vivo; conditions: for ED50: read-out: β-blockade Heart rate ED50; for Emax: read-out: Intrinsic activity % of isoprenaline heart rate response
T1 construct: Intravenously injected isoprenaline increased the heart rate and reduced the perfusion pressure; from tissue; host or cells: heart of the anaesthetized, reserpinized, vagotomized cat (in vivo)
Description: Alprenolol was used as a reference substance.
(§1) Cats weighing between […] were anaesthetized with 30 mg/kg pentobarbital sodium i.p. The cats had been pretreated with reserpine, 5 mg/kg i.m. about 18 hours before the experiment. Bilateral vagotomy was performed before the start of the experiment.
The heart rate was recorded on an Offner cardiotachometer triggered by the EKG-complex. Mean intraarterial blood pressure was recorded from a carotid artery. The peripheral resistance was measured in one of the legs of the cat in the following way: The femoral artery was opened in the inguinal region and the leg was perfused by blood delivered through a sigma motor pump at constant rate. The flow resistance (the pressure) as recorded via a strain gauge transducer connected to the catheter distally to the pump. The paw was excluded from the circulation by a tight ligature around the ankle. […] An isoprenaline dose giving 70-80% of the maximal chronotropic response was determined. […] Ten minutes before each isoprenaline injection, the tested substances were administered intravenously for two minutes, starting with a dose of 0.01 mg/kg and increasing each subsequent dose fourfold. The intrinsic effects of the test substances were determined. The dose producing 50% blockade of the isoprenaline responses were evaluated from the plotted log dose-per cent blockade diagrams.

[1] = target: T2, peripheral vascular β-receptors (Felis catus, UniProt Q9TST5); test: Peripheral vascular β-blockade (peripheral vascular resistance, vasodilator response to isoprenaline) in the reserpinized cat; type: in vivo; conditions: read-out: β-blockade Peripheral vascular resistance ED50
T2 construct: from tissue; host or cells: vascular bed of the blood-perfused leg (paw excluded) of the anaesthetized, reserpinized cat (in vivo)
Description: The compounds prepared according to examples 1-18 were evaluated for intrinsic activity and blocking effect on heart rate and for peripheral vasodilator response to isoprenaline in the cat. Alprenolol was used as a reference substance.
as §1
The heart rate was recorded on an Offner cardiotachometer triggered by the EKG-complex. Mean intraarterial blood pressure was recorded from a carotid artery. The peripheral resistance was measured in one of the legs of the cat in the following way: The femoral artery was opened in the inguinal region and the leg was perfused by blood delivered through a sigma motor pump at constant rate. The flow resistance (the pressure) as recorded via a strain gauge transducer connected to the catheter distally to the pump. The paw was excluded from the circulation by a tight ligature around the ankle. Intravenously injected isoprenaline increased the heart rate and reduced the perfusion pressure. An isoprenaline dose giving 70-80% of the maximal chronotropic response was determined. This dose (usually 0.1 μg/kg) was then repeated with 20 minute intervals. Ten minutes before each isoprenaline injection, the tested substances were administered intravenously for two minutes, starting with a dose of 0.01 mg/kg and increasing each subsequent dose fourfold. The intrinsic effects of the test substances were determined. The dose producing 50% blockade of the isoprenaline responses were evaluated from the plotted log dose-per cent blockade diagrams.

[2] = reserpinized cat, intravenous, 50% blockade of isoprenaline response (usually 0.1 μg/kg)

T2 sequence (Q9TST5 whole entry, the tested form may be a part): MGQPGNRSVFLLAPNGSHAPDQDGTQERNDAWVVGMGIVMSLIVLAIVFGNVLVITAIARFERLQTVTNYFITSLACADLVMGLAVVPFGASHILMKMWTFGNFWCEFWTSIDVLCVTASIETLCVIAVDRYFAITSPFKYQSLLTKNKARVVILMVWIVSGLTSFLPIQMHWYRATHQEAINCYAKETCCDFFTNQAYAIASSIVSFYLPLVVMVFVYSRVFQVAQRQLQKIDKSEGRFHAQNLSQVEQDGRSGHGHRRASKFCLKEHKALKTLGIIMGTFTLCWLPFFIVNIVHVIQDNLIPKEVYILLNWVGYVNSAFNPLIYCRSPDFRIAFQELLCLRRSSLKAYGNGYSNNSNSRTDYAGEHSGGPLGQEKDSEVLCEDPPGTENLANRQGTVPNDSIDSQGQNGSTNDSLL
T1 sequence (Q9TST6 whole entry, the tested form may be a part): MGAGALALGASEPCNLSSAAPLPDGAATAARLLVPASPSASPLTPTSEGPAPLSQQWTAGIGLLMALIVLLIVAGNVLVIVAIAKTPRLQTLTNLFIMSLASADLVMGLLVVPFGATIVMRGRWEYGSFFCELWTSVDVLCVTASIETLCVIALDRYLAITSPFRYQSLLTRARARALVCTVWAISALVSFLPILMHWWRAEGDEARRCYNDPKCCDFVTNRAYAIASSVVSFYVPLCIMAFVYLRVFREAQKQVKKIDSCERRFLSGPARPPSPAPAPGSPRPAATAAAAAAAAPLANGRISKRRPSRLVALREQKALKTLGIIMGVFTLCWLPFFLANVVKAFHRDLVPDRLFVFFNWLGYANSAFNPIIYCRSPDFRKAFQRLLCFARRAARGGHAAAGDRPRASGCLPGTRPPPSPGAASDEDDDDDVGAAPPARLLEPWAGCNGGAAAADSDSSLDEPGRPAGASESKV

| Structure (SMILES) | ED50 (β-receptors of the heart; [2]) [mg/kg] | Emax (β-receptors of the heart; reserpinized cat, intravenous) [%] | ED50 [1, 2] [mg/kg] | ED50 (β-receptors of the heart; cat, iv) [mg/kg] | Emax (β-receptors of the heart; iv) [%] | ED50 ([1]; cat, iv) [mg/kg] |
| --- | --- | --- | --- | --- | --- | --- |
| CNC(=O)OCCc1ccc(OCC(O)CNC(C)C)cc1 (stereo not shown) [CH3 NHCOOC2 H4, H, 1-Isopropylamino-3-[4-(2-methylcarbamoyloxyethyl)-phenoxy]-propanol-2] | 0.4 | 0 | 2.4 |  |  |  |
| C=CCc1ccccc1OCC(O)CNC(C)C (stereo not shown) [alprenolol, Alprenolol, reference compound] |  | 20 |  |  |  |  |
| CNC(=O)OCCOc1ccc(OCC(O)CNC(C)C)cc1 (stereo not shown) [CH3 NHCOOC2 H4 O, H, 1-isopropylamino-3-[4-(2-methylcarbamoyloxyethoxy)-phenoxy]-propanol-2] | 0.5 | 25 | > 8.5 |  |  |  |
| CC(C)NCC(O)COc1ccc(CCNC(N)=O)cc1Cl (stereo not shown) [H2 NCONHC2 H4, Cl, 1-Isopropylamino-3-[2-chloro-4-(2-carbamoylaminoethyl)phenoxy]-propanol-2] | 0.4 | 0 | 2.6 |  |  |  |
| CC(C)NCC(O)COc1ccc(OCCOC(N)=O)cc1 (stereo not shown) [H2 NCOOC2 H5 O, H, 1-Isopropylamino-3-[4-(2-carbamoyloxyethoxy)-phenoxy]-propanol-2] |  |  |  | 0.4 | 40 | 8 |
| CC(C)NCC(O)COc1ccc(OCCOC(=O)N(C)C)cc1Cl (stereo not shown) [(CH3)2 NCOOC2 H4 O, Cl, 1-Isopropylamino-3-[2-chloro-4-(2-dimethylcarbamoyloxyethoxy)-phenoxy]-propanol-2] | 0.1 | 5 | 1.7 |  |  |  |
| CC(C)NCC(O)COc1ccc(CCNC(N)=O)cc1 (stereo not shown) [H2 NCONHC2 H4, H] | 0.4 | 0 | 14 |  |  |  |
| CNC(=O)OCCc1ccc(OCC(O)CNC(C)C)c(Cl)c1 (stereo not shown) [CH3 NHCOOC2 H4, Cl, 1-Isopropylamino-3-[2-chloro-4-(2-methylcarbamoyloxyethyl)-phenoxy]-propanol-2] | 0.3 | 0 | 1.8 |  |  |  |

Reference: patent US4078146A, “Phenoxy propanolamines” (priority 1972, dated 1978)
